These results are taken from patent US6787519B2, “Methods of treating disorders related to apoE” (The Regents of the University of California, priority 2000, dated 2004).

The subject of test [1] is Neuro2a cells expressing apoE4. Nature of the test: formation of apoE and p-tau immunoreactive intracellular inclusions after Aβ or ER stress inducers. The test is classed as cell-based, mouse. The note with it: untreated 2.7±1.2%; p<0.001. As for the experimental part:
(§1) Cell cultures—Murine neuroblastoma (Neuro-2a) cells were obtained from American Type Culture Collection (Rockville, Md.). Neuro-2a cells were maintained at 37° C. in a humidified 5% CO2 incubator in MEM-containing 10% FBS, supplemented with non-essential amino acids, penicillin, and streptomycin.
(§2) Transient transfection of cells—Neuro-2a, NT2-N, or cultured mouse primary neurons were transiently transfected with various apoE cDNA constructs, as listed in Table I, by using lipofectamine method. Briefly, 2 μg of apoE DNA were pre-incubated with 7 μl of lipofectamine in 200 μl of serum-free MEM containing N2-supplements at room temperature for 30 minutes. After addition of 800 μl of serum-free MEM containing N2-supplements, the mixture was added into the cells that had been washed three times with serum-free MEM. Ten to forty-eight hours later, the transfected cells were used for different experiments.
(§3) Immunocytochemistry—Neuro-2a cells were grown in 2-well chamber slides for 24 hours and were then transiently transfected with different apoE3 or apoE4 DNA constructs, as described above. After washing twice in PBS, the transfected cells were fixed with 3% paraformaldehyde in PBS for 30 minutes at room temperature, washed twice in PBS, and then permeabilized with Triton-X100 for 5 minutes which was followed by three washes in PBS.
(§4) To block nonspecific reactions, all slides were incubated for 1 hour at room temperature with PBS containing 2% BSA and 10% normal serum (Vector) derived from the same species as the source of secondary antibody (sheep or rabbit), followed by a 1-hour incubation with the primary antibody (monospecific rabbit anti-human apoE, 1:500; monoclonal anti-p-tau, 1:100-1:1000, anti-p-NF—H, 1:100-1:500) in PBS containing 2% BSA.
(§5) Slides were then washed three times in PBS containing 2% BSA and incubated for 1 hour at room temperature with the secondary antibody (FITC-coupled anti-rabbit IgG to detect antigen-bond anti-human apoE, Rodamine- or Cy5-coupled anti-mouse IgG to detect antigen-bond anti-p-tau or anti-p-NF—H). After three washes in PBS containing 2% BSA, immunofluorescently labeled slides were mounted in VectaShield (Vector) and viewed with a MRC-1024 laser scanning confocal system (Bio-Rad) mounted on an Optiphot-2 microscope (Nikon, Tokyo, Japan).
(§6) Since Aβ deposition is a major pathological component within the brains of Alzheimer's disease patients, we determined the effect of Aβ treatment on the formation of apoE and p-tau immunoreactive intracellular inclusions in Neuro2a cells expressing apoE.
(§7) Since Aβ treatment of cells can cause ER stress (TN98), other ER stress inducers, including Brefeldin A (BfA) and tunicamycin (TN98), were used to determine whether ER stress can increase the formation of intracellular inclusions in apoE transfected Neuro2a cells. Incubation with either BfA or tunicamycin increased the inclusion-positive cells from 2.7±1.2% to 7.2±2.1% (p<0.001) in apoE4 expressing cells and from 0% to 3.2±1.1% (p<0.001) in apoE3 expressing cells.

Test [2] relates to Neuro2a cells expressing apoE3. The test is described as above. The format is cell-based, mouse. The note with it: untreated 0%; p<0.001. As for the experimental part: as §1, §2, §3, §4, §5, §6, §7
The subject of test [3] is apoE cleavage enzyme. Nature of the test: cleavage of apoE4 in the presence of known protease inhibitors, anti-apoE western blot. The format is biochemical, mouse. As for the experimental part:
To test this hypothesis, purified human apoE3 or apoE4 were incubated with brain lysates of apoE knockout mice at 37° C. for 3 hours and the proteolysis of apoE was analyzed by anti-apoE western blot.
To determine the biochemical properties of the putative apoE cleavage enzyme, we tested the effects of different known inhibitors for four major categories of proteases, i.e., serine proteases, cysteine proteases, aspartate proteases, and metalloproteases.
(In general: Immunoblotting shows a protein as a band on a membrane.)

The subject of test [4] is apoE cleavage enzyme. Nature of the test: chromogenic assay with Ala-Ala-Pro-Phe-p-nitroanilide as substrate. The format is biochemical, mouse. The note with it: 1 mM Ala-Ala-Pro-Phe-p-nitroanilide substrate. As for the experimental part: To monitor the cleavage activity, a chromogenic group (p-nitroanilide) was added to the carboxyl-side of the last amino acid at the C-terminus. If the enzyme cuts the bond between the last amino acid and p-nitroanilide, the released p-nitroanilide will yield a yellow color, which can be monitored by a spectrophotometer at about 390-410 nm.
Importantly, a proline at the P2 position and two hydrophobic amino acids (such as alanine, Ala) at the P3 and P4 positions are critical for determining the efficiency of the cleavage. Taken together, the putative apoE cleavage enzyme is a chymotrypsin-like serine protease, which recognizes the motif of Ala-Ala-Pro-Phe (SEQ ID NO:1), Ala-Ala-Pro-Met (SEQ ID NO:2), Ala-Ala-Pro-Leu (SEQ ID NO:3), or a similar sequence in the substrate peptides or proteins. By using Ala-Ala-Pro-Phe-p-nitroanilide as a substrate, the chromogenic assay can be used as a high-throughput method to screen drugs, agents, or chemical compounds that inhibit apoE cleavage activity. Para-nitroanilide is detected spectrophotometrically at about 390-410 nm.
By using the chromogenic assay, in which 1 mM Ala-Ala-Pro-Phe-p-nitroanilide was used as the substrate, we screened many peptides towards the inhibition of the apoE cleavage enzyme activity.

The subject of test [5] is apoE cleavage enzyme. Nature of the test: inhibition of apoE4 cleavage by partially purified apoE cleavage enzyme, anti-apoE western blot. The test is classed as biochemical, mouse. The note with it: peptide 1 mM, 4 μg apoE4, 3 hours at 37° C. An excerpt:
The peptides Ala-Ala-Pro-Phe (SEQ ID NO:1) and Ala-Ala-Pro-Leu (SEQ ID NO:3) were further tested for the inhibition of apoE cleavage. […] Thus, both Ala-Ala-Pro-Phe (SEQ ID NO:1) and Ala-Ala-Pro-Leu (SEQ ID NO:3) can be used as peptide inhibitors for the apoE cleavage enzyme.

For test [6], the system named is Neuro-2a cells expressing apoE3 or apoE4. Kind of test: generation of carboxyl-terminal truncated apoE in cells incubated with Aβ1-42, immunoprecipitation and anti-apoE western blotting. The note with it: more so with apoE4. The format is cell-based, mouse. As to the method:
Immunoprecipitation and western blotting—Neuro-2a cells were grown to 80% confluence in 6-well plates or 15-cm dishes and were then transiently transfected with different apoE DNA constructs, as described above. Twenty-four to forty-eight hours later, the cells were harvested and lysed in ice-cold lysis buffer for 30 minutes. After spinning to remove nuclei (13,000 rpm for 15 minutes), apoE in supernatant was immunoprecipitated with monospecific rabbit anti-human apoE antibody and protein-A agarose beads. The immunoprecipitates were washed twice with lysis buffer and three times with PBS. The presence of apoE, p-tau, or p-NF—H in the immunoprecipitates was analyzed by western blotting using the corresponding antibodies. Alternatively, the supernatants of cell lysates were immunoprecipited with monoclonal anti-p-tau or anti-p-NF—H antibodies and, then, the presence of apoE was analyzed by anti-apoE western blotting.
Since Aβ1-42 increased formation of intracellular inclusions in Neuro2a cells expressing apoE4, we next determined whether treatment of the transfected cells with Aβ will increase generation of the carboxyl-terminal truncated form of apoE. Neuro-2a cells expressing apoE3 or apoE4 were incubated with Aβ1-42, then, intracellular apoE was immunoprecipitated and detected by anti-apoE western blotting. […]

Test [7] has as its system Neuro-2a cells. Kind of test: incubation of cells with exogenous recombinant apoE4(Δ272-299) complexed with β-VLDL. The test is classed as cell-based, mouse. The note with it: 30 hours incubation. As for the experimental part: In human brains, apoE is synthesized and secreted primarily by astrocytes, although human neurons are capable of producing apoE. The secreted apoE can be internalized by neurons. To determine whether internalized apoE4(Δ272-299) can induce formation of NFT-like structures in neurons. Neuro-2a cells were incubated with recombinant apoE4(Δ272-299), which had been complexed with the lipid transport vehicle β-VLDL. After 30 hours incubation, neurite outgrowth and the formation of NFT-like structures in the cells were determined. […] These structures were identical to the tangle-like structures formed in Neuro-2a cells expressing GFP-apoE4(Δ272-299) in the cytosol. Therefore internalized apoE4(Δ272-299) can escape the endosomal-lysosomal pathway and interact with cytosolic p-tau and p-NF—H.

Test [8] concerns Neuro-2a cells. Kind of test: formation of intracellular inclusions / NFT-like structures in cells transfected with truncated apoE constructs. The settings on record: constructs with deletion of 28 carboxyl-terminal amino acids. The format is cell-based, mouse. As to the method:
as §1, §2
Immunocytochemistry—Neuro-2a cells were grown in 2-well chamber slides for 24 hours and were then transiently transfected with different apoE3 or apoE4 DNA constructs, as described above. […]
For the cells transiently transfected with GFP-apoE DNA constructs, after fixed in 3% paraformaldehyde and washed twice in PBS, the green fluorescence was viewed directly with a MRC-1024 laser scanning confocal system (Bio-Rad) as described above. […]

Where [9] appears, read: 6 mM peptide, 20 hour incubation.

Square brackets hold non-standard residues; d marks the D form. Peptide text beside a SMILES is read from it. * marks the point of attachment. Sta = CC(C)C[C@H](N)[C@@H](O)CC(=O)O; Isovaleryl = CC(C)CC(=O)*

Turning to `C[C@H]1CCC/C=C/[C@@H]2C[C@H](O)C[C@H]2[C@H](O)/C=C/C(=O)O1` [BfA, Brefeldin A], in test [1], the “inclusion-positive apoE4 expressing cells after treatment” value turned out to be 7.2±2.1%. Further, the “inclusion-positive apoE3 expressing cells after treatment” value in test [2] is on record as 3.2±1.1%.

Turning to `CC(C)C[C@H](NC(=O)[C@H]1O[C@@H]1C(=O)O)C(=O)NCCCCN=C(N)N` [E-64], the “inhibition of the cleavage of apoE4” value in test [3] was “did not inhibit”.

Regarding `O=C(O)CN(CCOCCOCCN(CC(=O)O)CC(=O)O)CC(=O)O` [EGTA], the “inhibition of the cleavage of apoE4” value in test [3] is given as “did not inhibit”.

For the molecule `O=S(=O)(F)Cc1ccccc1` [PMSF], in test [3], the “inhibition of the cleavage of apoE4” value is recorded as “totally abolished”.

Take `CC(C)CC(=O)N[C@H](C(=O)N[C@H](C(=O)N[C@@H](CC(C)C)[C@@H](O)CC(=O)N[C@@H](C)C(=O)N[C@@H](CC(C)C)[C@@H](O)CC(=O)O)C(C)C)C(C)C` [pepstain] (Isovaleryl-VV[Sta]A[Sta]-OH): in test [3], the “inhibition of the cleavage of apoE4” value is “did not inhibit”.

Take “Ala-Ala-Pro-Leu (AAPL; OTHER INFORMATION: synthetic peptide)”: in test [4] (setting [9]), the “inhibition of apoE cleavage enzyme activity” value is on record as 56%. Besides, the “inhibition of apoE cleavage” value in test [5] was “significant inhibition”.

Turning to “Ala-Ala-Pro-Phe (AAPF; OTHER INFORMATION: synthetic peptide)”, the “inhibition of apoE cleavage enzyme activity” value in test [4] (setting [9]) was found to be 67%. Also, in test [5], the “inhibition of apoE cleavage” value is given as “significant inhibition”.

On to Aβ1-42: amyloid beta (Aβ) peptide 1-42, for which, in test [6], the “amounts of the carboxyl-terminal truncated forms of both apoE3 and apoE4” value was “significantly increased”. Further, the “inclusion-positive apoE4 expressing cells after treatment” value in test [1] is reported as 6.7±1.5%. For the same molecule, the “inclusion-positive apoE3 expressing cells after treatment” value in test [2] was 2.8±0.6%.

Regarding “apoE4 (Δ272-299): apoE4 with deletion of 28 carboxyl-terminal amino acids”, in test [7], the neurite outgrowth result was “did not show neurite outgrowth”. Besides, the “formation of NFT-like structures” value in test [7] (anti-apoE immunofluorescent staining) is reported as “NFT-like structures were formed”. Besides, the “transfected cells displaying the intracellular filamentous inclusions” value in test [8] turned out to be 78±8%.

Consider “apoE4: human apolipoprotein E isoform apoE4, full-length”, for which the “inhibition of apoE cleavage enzyme activity” value in test [4] (7 μM apoE4) was 89%.

For the molecule tunicamycin, the “inclusion-positive apoE4 expressing cells after treatment” value in test [1] is reported as 7.2±2.1%. Also, in test [2], the “inclusion-positive apoE3 expressing cells after treatment” value is reported as 3.2±1.1%.
